Columns and labels:
[1] = orchiectomised male rats
[2] = mice; compared with testosterone administered by the same route; cited from earlier work

C[C@]12CC[C@H]3[C@@H](CCC4=CC(=O)CC[C@@]43C)[C@@H]1CC[C@@H]2O[C@@H]1O[C@H](CO)[C@@H](O)[C@H](O)[C@H]1O [testosterone glucoside, Testosterone-17-β-1′-β′-D-glucopyranose]
bioavailability, oral ([1]; 1.56 mg orally daily for 6 days, serum testosterone 4 hours after final dose): bioavailable when given orally | metabolism to testosterone ([1]; oral or intramuscular, daily for 6 days): readily metabolised to testosterone | biological activity in vivo [2]: very little activity in vivo, and certainly less than testosterone

— patent US6916791B2, “Androgen derivatives and uses thereof” (Strakan Limited, priority 1999, dated 2005)
